Results reported in patent US6368814B1, “Tricyclic antidepressant derivatives and immunoassay” (Roche Diagnostics Corporation, priority 2000, dated 2002).

What was measured:
[1] = tested on: Monoclonal Antibody TCA 1.1; experiment: Competitive microplate ELISA of imipramine with monoclonal antibody TCA 1.1, wells coated with compound 11 conjugate; type: binding, mouse; conditions: compound 11 coated wells, mAb TCA 1.1
Protocol: (§1) To analyze the sera for antibody content an ELISA assay using the cognate antigen linked to a different protein (2-carboxypropyl-dihydroamitriptyline-BSA) (compound 11) was used. This antigen was diluted to 5 μg/ml in 0.1 M carbonate buffer, pH 9.5. A volume of 100 μl of this antigen solution was pipetted into wells of a polystyrene 96-well microplate (Costar, Cambridge, Mass.). This was incubated in a plastic bag at 37° C. for 1 hour. The solutions were then removed via suction, and wells were filled with a blocking solution. This consisted of gelatine hydrolysate, 1%, sucrose, 2%, Tris, 0.15 M, pH 7.4 (all reagents from Sigma Chemicals). This was allowed to block the plates for 1 hour at room temperature in plastic bags. Wells were then emptied via suction.
(§2) Dilutions of the sera were prepared by transferring 1 μl to a glass test tube containing 1 ml of phosphate buffered saline, with 0.1% Tween 20 (PBS-T). One hundred and fifty microliters of this dilution of each serum were transferred to wells in Row A of a polyvinyl chloride microplate. All other wells were filled with 100 μl of PBS-T. Serial three-fold dilutions were prepared by transferring 50 μl from Row A to Row B using a multi-channel micropipettor. Mixing was accomplished by re-pipetting 3 times. This was repeated from Row B to C and so on down each column of wells.
(§3) Once all dilutions were prepared, 95 μl of each, starting with Row H, was transferred to the same row in the coated plate. The plate was placed in a Ziploc plastic bag with a damp piece of paper towel and incubated at 37° C. for one hour. Following incubation, the wells were washed four times manually with 300 μl aliquots of PBS-T. A 1:5000 dilution of goat anti-mouse IgG AM-HRP conjugate (Kirkegaard & Perry, Gaithersburg, Md.) was prepared in PBS-T. 100 μl of this was then pipetted into each well, the plate again incubated as above. The plate was then washed 6 times with 300 μl of PBS-T manually, and 100 μl of K-Blue substrate (Neogen, Lexington, Ky.) was added to each well. This was allowed to develop in the dark for 5 minutes, and the reaction was then stopped by the addition of 100 μl of a 2 M phosphoric acid solution. The optical densities of the wells were read using a Molecular Devices Tmax plate reader and a Macintosh computer.
(§4) Hybridoma clone TCA 1.1 was placed into high-density culture and supernatant harvested. This preparation was preserved by the addition of thimerosal to a concentration of 0.02%. Antibody content was evaluated by a titer experiment in which varying dilutions of supernatant were placed into microplate wells coated with a constant amount of antigen conjugate.
(§5) Incubation for 1 hour at 37° C. was followed by the same procedure as for the screening assays. Optical densities were plotted versus the final concentration of imipramine calculated as a molar (gram-molecular weight drug per liter) concentration.

[2] = tested on: Monoclonal Antibody TCA 1.1; experiment: Competitive microplate ELISA of imipramine with monoclonal antibody TCA 1.1, wells coated with compound 27 conjugate; type: binding, mouse; conditions: compound 27 coated wells, mAb TCA 1.1
Protocol: as §1, §2, §3
This animal received a booster immunization of 100 μg of antigen in incomplete Freund's adjuvant four days before the fusion was performed. The myeloma cell line F0 (ATCC, Manassas, Va.) was used for the fusion. The fusion was performed by the method of de St Groth and Scheidegger, Journal of Immunol. Meth. 35, 1-21, 1980. Ten days later hybrid cell cultures were ready for screening.
as §4, §5

[3] = imipramine final concentration 1.98 × 10^−6 molar
[4] = imipramine final concentration 2.2 × 10^−7 molar
[5] = imipramine final concentration 2.45 × 10^−8 molar
[6] = imipramine final concentration 6.6 × 10^−7 molar
[7] = imipramine final concentration 7.43 × 10^−8 molar
[8] = imipramine final concentration 8.15 × 10^−9 molar

CN(C)CCCN1c2ccccc2CCc2ccccc21 [Imipramine, imipramine]
OD450 compound 11 [1, 3]: 0.056 | OD450 compound 11 [1, 4]: 1.35 | OD450 compound 11 [1, 5]: 2.325 | OD450 compound 11 [1, 6]: 0.541 | OD450 compound 11 [1, 7]: 1.95 | OD450 compound 11 [1, 8]: 2.6 | OD450 compound 27 [2, 3]: 0.037 | OD450 compound 27 [2, 4]: 0.276 | OD450 compound 27 [2, 5]: 1.719 | OD450 compound 27 [2, 6]: 0.038 | OD450 compound 27 [2, 7]: 1.124 | OD450 compound 27 [2, 8]: 2.434
